Patent US12268702B2, “Antitumor pharmaceutical composition comprising azvudine and chemotherapeutic agent” (HENAN GENUINE BIOTECH CO., LTD., priority 2023, dated 2025)

Key:
[1] = test system: Colo 205 human colon cancer model; assay: Colo 205 human colon cancer subcutaneous xenograft tumor model; assay type: in vivo
Protocol: Experimental animals were 68 (48 plus 20 spare mice) BALB/c female nude mice, 7-8 weeks old (the age of mice at the time of tumor cell inoculation) and weighing 15.7-20.7 g, which were purchased from Beijing VitalRiver Experimental Animal Technology Co., Ltd. Breeding environment was SPF grade. The experimental animals were all kept in an independent ventilated box with constant temperature and humidity. The temperature of the breeding room was 20-26° C., the humidity was 40-70%. The breeding room was ventilated 10-20 times per hour. The alternating time of day and night was 12 h/12 h. The mice were continuously supplied with cobalt 60 radiation sterilized mouse complete pellet feed, and had free access to the feed. The mice drank tap water (available after sterilization with high-pressure steam), which was continuously supplied using a water-drinking bottle, and had free access to water. The mouse box was a polysulfone mouse box, which was used after sterilization under high pressure, with a size of 325 mm×210 mm×180 mm.
Colo 205 cells were cultured in RPMI1640 medium containing 10% fetal bovine serum. Colo 205 cells in the exponential growth phase were collected, resuspended in PBS to an appropriate concentration and mixed with Matrigel at a ratio of 1:1. The resulting mixture was used for subcutaneous inoculation of tumor in mice. 5×10^6 Colo 205 cells were subcutaneously inoculated on the right side of female mice. The day of inoculation was defined as Day 0. When the average tumor volume reached 110.26 mm^3, the mice were randomly divided into groups according to tumor size.
Relative tumor proliferation rate, T/C %, refers to the percentage value of the relative tumor volume or tumor weight of the treatment group and the control group at a certain time point, which was calculated as follows:
T/C %=TRTV/CRTV×100% (TRTV: the average RTV of the treatment group; CRTV: the average RTV of the vehicle control group; RTV=Vt/V0, where V0 is the tumor volume of the animal when grouped, and Vt is the tumor volume of the animal after treatment); • or T/C %=TTW/CTW×100% (TTW: the average tumor weight of the treatment group at the end of the experiment; CTW: the average tumor weight of the vehicle control group at the end of the experiment). • Relative tumor inhibition rate, TGI (%), was calculated according to the formula as follows: TGI %=(1−T/C)×100%. (T and C are the relative tumor volumes (RTV) or tumor weights (TW) of the treatment group and the control group at a specific time point).

[2] = test system: Daudi xenograft tumor model; assay: Human Burkitt's lymphoma cell Daudi subcutaneous xenograft tumor model; assay type: in vivo; conditions: combination 1 + 50 mg/kg; for Tumor volume (mm^3) on the 27th day: CB 17 SCID mice, QD x 4 weeks, azvudine 1 mg/kg p.o., cyclophosphamide 50 mg/kg i.p.
Protocol: Human Burkitt's lymphoma cells Daudi (Cat. No.: DSMZ-ACC129) were in vitro suspended and cultured in RPMI 1640 medium containing 10% fetal bovine serum, 2 mM glutamine, 100 U/mL penicillin and 100 μg/mL streptomycin, in a 37° C. and 5% CO2 incubator. When the cell saturation achieved 80%-90% and the cell number reached the requirement, the cells were collected, counted and inoculated.
0.2 mL (10×10^6) of Daudi cells (added with Matrigel at a volume ratio of 1:1) were subcutaneously inoculated on the right back of each mouse. The grouping administration was started when the average tumor volume reached about 100 mm^3.
The changes of tumor volume and tumor weight in each group after administration of test drugs for treating CB 17 SCID mice with Daudi cell subcutaneous xenograft tumor are shown in Table 8 and Table 9 respectively.

[3] = based on tumor volume, 25th day after inoculation, p.o. QD x 3 weeks, azvudine 1 mpk, capecitabine 400 mpk, combination 1 + 400 mpk
[4] = based on tumor weight, azvudine 1 mpk, capecitabine 400 mpk, combination 1 + 400 mpk
[5] = based on tumor volume, 27th day, azvudine 1 mg/kg, cyclophosphamide 50 mg/kg

[N-]=[N+]=N[C@]1(CO)O[C@@H](n2ccc(N)nc2=O)[C@@H](F)[C@@H]1O [Azvudine, azvudine]
Tumor volume ([1]; 25th day after inoculation (20th day after grouping), BALB/c nude mice, p.o. QD x 3 weeks, azvudine 1 mpk, capecitabine 400 mpk, combination 1 + 400 mpk): 985.14 ± 108.58(6) | average tumor volume ([1]; 25th day after tumor inoculation (20th day after grouping), azvudine 1 mg/kg, capecitabine 400 mg/kg, combination 1 + 400 mg/kg): 985.14 mm^3 | T/C (%) [1, 3]: 67.57% | TGI (%) [1, 3]: 32.43% | T/C (%) [1, 4]: 28.19% | TGI [1, 4]: 71.81 | Tumor weight (mg) ([1]; end of experiment, p.o. QD x 3 weeks, azvudine 1 mpk, capecitabine 400 mpk, combination 1 + 400 mpk): 986.10 ± 107.78(6) mg | Tumor volume (mm^3) on the 27th day ([2]; 27th day of administration): 909 ± 120 mm^3 | Tumor volume (mm^3) on the 27th day ([2]; 27th day of administration, listed as azvudine): 909 mm^3 | Tumor weight (g) (On the 27th day) ([2]; 27th day of administration, azvudine 1 mg/kg, cyclophosphamide 50 mg/kg): 0.996 ± 0.143 g | T/C (%) [2, 5]: 30.64% | TGI (%) [2, 5]: 71.09% | T/Cweight (%) ([2]; based on tumor weight, 27th day, azvudine 1 mg/kg, cyclophosphamide 50 mg/kg): 33.38%
